The values that follow come from US8933107B2, “Pesticide thiazolyloxy substituted phenylamidine derivatives” (Bayer Cropscience AG, priority 2005, dated 2015).

The term chromatographic logP denotes lipophilicity estimated from chromatographic retention. Low values mean a more hydrophilic compound, high ones a more lipophilic compound.

Data set [1] concerns Puccinia recondita f. Sp. tritici. As to the kind of experiment: In vivo preventive test on Puccinia recondita f. Sp. tritici (wheat brown rust). To be noted: topical, 240 h, 1000 ppm of active ingredient, evaluated 10 days after inoculation, read-out: efficacy.
Data set [2] concerns Erysiphe graminis f. sp. hordei. As to the kind of experiment: In vivo preventive test on Erysiphe gramini (powdery mildew on barley). To be noted: Blumeria graminis, 168 h, 1000 ppm of active ingredient, evaluated 7 days after inoculation, read-out: efficacy.
In a further data set the test system is Alternaria solani. As to the kind of experiment: In vivo protective test on Alternaria solani (leaf spot of tomato). To be noted: 168 h, 500 ppm of active ingredient, evaluated 7 days after inoculation, read-out: efficacy.
Another data set has as its system Podosphaera leucotricha. As to the kind of experiment: In vivo protective test on Podosphaera leucotricha (apples). To be noted: topical, 240 h, 100 ppm of active ingredient, evaluated 10 days after inoculation, read-out: efficacy.
The subject of the next data set is Sphaerotheca fuliginea. As to the kind of experiment: In vivo protective test on Sphaerotheca fuliginea (cucumbers). To be noted: Podosphaera fuliginea, 168 h, 100 ppm of active ingredient, evaluated 7 days after inoculation, read-out: efficacy.
A short description of another data set: physchem. To be noted: reversed-phase HPLC column (C 18).
The subject of another data set is Heliotis virescens. As to the kind of experiment: Heliotis virescens test (HELIVI spray application). The class given is in vivo. To be noted: soybean leaf sections, concentration and time not stated.

With `CCN(C)/C=N/c1cc(C)c(Oc2nc(Cl)c(Cl)s2)cc1C` [Compound 1.1, N′-{4-[(4,5-dichloro-1,3-thiazol-2-yl)oxy]-2,5-dimethylphenyl}-N-ethyl-N-methylimidoformamide], the pest or weed control at 1000 ppm in data set [1] and in data set [2] was not below 70% in each case. The pest or weed control at 500 ppm with Alternaria solani is not below 70%. Besides, the pest or weed control at 100 ppm in the data set on Podosphaera leucotricha and in the data set with Sphaerotheca fuliginea was not below 70% each time. Besides, the chromatographic logP in the data set “physchem” was found to be 2.12; in the data set “physchem” (pH 2.3), 2.04.

For the compound `Cc1cc(Oc2nc(Cl)c(Cl)s2)c(C)cc1/N=C/N(C)C(C)C` [Compound 1.3], the pest or weed control at 1000 ppm in data set [1] and in data set [2] was not below 70% in each case. Also, the pest or weed control at 500 ppm in the data set on Alternaria solani is not below 70%. Besides, the pest or weed control at 100 ppm in the data set on Podosphaera leucotricha and with Sphaerotheca fuliginea was not below 70% each time. Also, the chromatographic logP in “physchem” came to 2.18.

Take `CCN(C)/C=N/c1cc(C)c(Oc2nc(C(C)(C)C)c(Cl)s2)cc1C` [Compound 1.4]: the pest or weed control at 1000 ppm in data set [1] and in data set [2] was not below 70% throughout. Further, the pest or weed control at 500 ppm in the data set with Alternaria solani is not below 70%. Moreover, the pest or weed control at 100 ppm in the data set with Podosphaera leucotricha and in the data set on Sphaerotheca fuliginea was not below 70% throughout. The same compound showed a chromatographic logP in the data set “physchem” of 2.76.

Consider `CCN(C)/C=N/c1cc(C)c(Oc2nc(C(F)(F)F)c(Cl)s2)cc1C` [Compound 1.5], for which the pest or weed control at 1000 ppm in data set [1] and in data set [2] was not below 70% throughout. In addition, the pest or weed control at 500 ppm with Alternaria solani is not below 70%. Moreover, the pest or weed control at 100 ppm in the data set with Podosphaera leucotricha and in the data set on Sphaerotheca fuliginea was not below 70% in each case. In addition, in “physchem”, the chromatographic logP was 2.15.

`CCN(C)/C=N/c1cc(C)c(Oc2nc(Cl)c(Br)s2)cc1C` [Compound 1.6]: the pest or weed control at 1000 ppm in data set [1] and in data set [2] was not below 70% throughout. Also, the pest or weed control at 100 ppm in the data set with Podosphaera leucotricha and in the data set with Sphaerotheca fuliginea was not below 70% each time. For the same compound, in the data set “physchem”, the chromatographic logP is 2.

As to `Cc1cc(Oc2nc(C(C)C)c(Cl)s2)c(C)cc1/N=C/N(C)C(C)C` [Compound 1.9], the pest or weed control at 1000 ppm in data set [1] and in data set [2] was not below 70% in each case. Moreover, in the data set with Alternaria solani, the pest or weed control at 500 ppm is not below 70%. Also, the pest or weed control at 100 ppm in the data set on Podosphaera leucotricha and with Sphaerotheca fuliginea was not below 70% throughout. In addition, the chromatographic logP in “physchem” is 2.57.

`Cc1cc(Oc2nc(C(F)(F)F)c(Cl)s2)c(C)cc1/N=C/N(C)C(C)C` [Compound 1.10]: the pest or weed control at 1000 ppm in data set [1] and in data set [2] was not below 70% in each case. Besides, the pest or weed control at 100 ppm in the data set with Podosphaera leucotricha and in the data set on Sphaerotheca fuliginea was not below 70% each time. In addition, the chromatographic logP in the data set “physchem” was 2.29.

Take `Cc1cc(Oc2nc(Cl)c(Br)s2)c(C)cc1/N=C/N(C)C(C)C` [Compound 1.11]: the pest or weed control at 1000 ppm in data set [1] and in data set [2] was not below 70% in each case. Further, the pest or weed control at 100 ppm in the data set on Podosphaera leucotricha and in the data set on Sphaerotheca fuliginea was not below 70% each time. Besides, in the data set on Heliotis virescens, the “activity (mortality of eggs)” value is recorded as “good activity”. Besides, the chromatographic logP in “physchem” came to 2.22.

As for `CCN(C)/C=N/c1cc(C)c(Oc2nc(C)c(Cl)s2)cc1C` [Compound 1.12], the pest or weed control at 1000 ppm in data set [1] and in data set [2] was not below 70% each time. Further, the pest or weed control at 500 ppm in the data set with Alternaria solani is not below 70%. Moreover, the pest or weed control at 100 ppm in the data set with Podosphaera leucotricha and in the data set on Sphaerotheca fuliginea was not below 70% in each case. This compound displayed a chromatographic logP in “physchem” of 1.98.

Consider `CCN(C)/C=N/c1cc(C)c(Oc2nc(Cl)c(C)s2)cc1C` [Compound 1.17], for which the pest or weed control at 1000 ppm in data set [1] and in data set [2] was not below 70% in each case. Besides, the pest or weed control at 500 ppm in the data set with Alternaria solani was not below 70%. The pest or weed control at 100 ppm with Podosphaera leucotricha was not below 70%. In addition, the chromatographic logP in “physchem” was found to be 1.8.

Regarding `CCN(C)/C=N/c1cc(C)c(Oc2nc(Cl)cs2)cc1C` [Compound 1.18], the pest or weed control at 1000 ppm in data set [1] and in data set [2] was not below 70% in each case. Further, the pest or weed control at 100 ppm in the data set with Podosphaera leucotricha and with Sphaerotheca fuliginea was not below 70% throughout. Moreover, the chromatographic logP in “physchem” worked out at 1.6.

As to `Cc1cc(Oc2nc(Cl)c(C)s2)c(C)cc1/N=C/N(C)C(C)C` [Compound 1.23], the pest or weed control at 1000 ppm in data set [1] and in data set [2] was not below 70% in each case. Moreover, in the data set with Heliotis virescens, the “activity (mortality of eggs)” value was “good activity”. For the same compound, the chromatographic logP in “physchem” came out at 1.94.

On to `CCN(C)/C=N/c1cc(C)c(Oc2nc(C(C)C)ns2)cc1C` [Compound 2.3], for which the pest or weed control at 1000 ppm in data set [1] and in data set [2] was not below 70% each time. Moreover, in the data set on Alternaria solani, the pest or weed control at 500 ppm was not below 70%. Besides, the pest or weed control at 100 ppm in the data set on Podosphaera leucotricha and with Sphaerotheca fuliginea was not below 70% in each case. The compound further came in with a chromatographic logP in the data set “physchem” of 1.74.

Consider `CCN(C)/C=N/c1ccc(Oc2nc(C(C)(C)C)ns2)cc1C` [Compound 2.7], for which the pest or weed control at 1000 ppm in data set [1] is not below 70%. In addition, in the data set on Alternaria solani, the pest or weed control at 500 ppm is not below 70%. In addition, the pest or weed control at 100 ppm in the data set with Podosphaera leucotricha was not below 70%. In addition, the chromatographic logP in “physchem” was 2.04.
